According to patent publication US20160242416A1, “FUNGICIDAL ISOXAZOLINE CARBINOLS” (E I DU PONT DE NEMOURS AND COMPANY, priority 2015, published 2016):

How the values were obtained:
[1] = system: Puccinia recondita f sp. tritici; experiment: Test F: wheat leaf rust, preventive spray on wheat seedlings; conditions: 100 = 100% disease control; for Test F disease control rating: 10 ppm test solution, 0 = no control relative to controls; for Test F rating (% disease control): 10 ppm, wheat leaf rust, 0 = no control
[2] = system: Zymoseptoria tritici; experiment: Test E: wheat leaf blotch, preventive spray on wheat seedlings; conditions: 100 = 100% disease control; for Test E disease control rating: 10 ppm test solution, 0 = no control relative to controls; for Test E rating (% disease control): 10 ppm, wheat leaf blotch, 0 = no control
[3] = system: Stagonospora nodorum; experiment: Test D: wheat glume blotch, preventive spray on wheat seedlings; conditions: 100 = 100% disease control; for Test D disease control rating: 10 ppm test solution, 0 = no control relative to controls; for Test D rating (% disease control): 10 ppm, wheat glume blotch, 0 = no control
[4] = system: Erysiphe graminis f sp. tritici; experiment: Test G: wheat powdery mildew, preventive spray on wheat seedlings; conditions: 100 = 100% disease control; for Test G disease control rating: 10 ppm test solution, 0 = no control relative to controls; for Test G rating (% disease control): 10 ppm, wheat powdery mildew, 0 = no control
Text: General protocol for preparing test solutions for Tests A-G: the test compounds were first dissolved in acetone in an amount equal to 3% of the final volume and then suspended at the desired concentration (in ppm) in acetone and purified water (50/50 mix by volume) containing 250 ppm of the surfactant PEG400 (polyhydric alcohol esters). The resulting test suspensions were then used in Tests A-G. Compounds were sprayed at a concentration of 50 ppm (*) or 10 ppm to the point of run-off on the test plants, the equivalent of a rate of 200 g/ha or 40 g/ha, respectively.
The test solution was sprayed to the point of run-off on wheat seedlings. The following day the seedlings were inoculated with a spore dust of Erysiphe graminis f sp. tritici, (the causal agent of wheat powdery mildew) and incubated in a growth chamber at 20° C. for 8 days, after which time visual disease ratings were made.
Compounds with an asterisks (*) were applied at a concentration of 50 ppm, otherwise test solutions were applied at 10 ppm.

Row | SMILES | Test F disease control rating [1] | Test E disease control rating [2] | Test D disease control rating [3] | Test G disease control rating [4] | Test F rating (% disease control) [1] | Test E rating (% disease control) [2] | Test D rating (% disease control) [3] | Test G rating (% disease control) [4]
1 | OC(COc1ccc(Cl)cc1)(Cn1cncn1)C1=NOC(c2ccc(Cl)cc2)C1 (centres unmarked) [Compound 273] | 98% | 2% | 11% | 69% | – | – | – | –
2 | OC(Cn1cncn1)(C1=NOC(COc2ccc(Cl)cc2)C1)C1(Cl)CC1 (single isomer, unassigned) [Compound 252] | 100% | 2% | 78% | 89% | – | – | – | –
3 | CC(C)(C)C(O)(Cn1cncn1)C1=NOC(COc2cccc(C(F)(F)F)c2)C1 (single isomer, unassigned) [Compound 253] | 100% | 3% | 99% | 100% | – | – | – | –
4 | CCC(C)(C)C(O)(Cn1cncn1)C1=NOC(COc2ccc(F)cc2)C1 (single isomer, unassigned) [Compound 249] | 100% | 0% | 100% | 100% | – | – | – | –
5 | CC1(C(O)(Cn2cncn2)C2=NOC(COc3ccc(Br)cc3)C2)CC1 (single isomer, unassigned) [Compound 239] | 100% | 0% | 98% | 99% | – | – | – | –
6 | CC(C)(C)CC(O)(Cn1cncn1)C1=NOC(COc2ccc(C(F)(F)F)cc2)C1 (single isomer, unassigned) [Compound 241] | 99% | 0% | – | 90% | – | – | – | –
7 | Cc1ccc(OCC2CC(C(O)(Cn3cncn3)C(C)(C)C)=NO2)cc1 (single isomer, unassigned) [Compound 234] | 0% | 0% | – | 99% | – | – | – | –
8 | CC(C)CC(O)(Cn1cncn1)C1=NOC(COc2ccc(Cl)cc2)C1 (single isomer, unassigned) [Compound 268] | 100% | 0% | 82% | 95% | – | – | – | –
9 | CCC(C)(C)C(O)(Cn1cncn1)C1=NOC(COc2ccc(C(F)(F)F)cc2)C1 (single isomer, unassigned) [Compound 262] | 99% | 41% | 0% | 98% | – | – | – | –
10 | CC1(C(O)(Cn2cncn2)C2=NOC(COc3ccc(Br)cc3)C2)CC1 (single isomer, unassigned) [Compound 238] | 100% | 0% | 99% | 99% | – | – | – | –
11 | CC(C)(C)C(O)(Cn1cncn1)C1=NOC(COCc2ccc(Cl)cc2)C1 (single isomer, unassigned) [Compound 264] | 0% | 0% | 0% | 99% | – | – | – | –
12 | CCC(C)(C)C(O)(Cn1cncn1)C1=NOC(COc2ccc(F)cc2)C1 (single isomer, unassigned) [Compound 250] | 99% | 0% | 64% | 99% | – | – | – | –
13 | CC(C)CC(O)(Cn1cncn1)C1=NOC(COc2ccc(Cl)cc2)C1 (single isomer, unassigned) [Compound 267] | 100% | 3% | 100% | 100% | – | – | – | –
14 | CC(C)(C)C(O)(Cn1cnnn1)C1=NOC(COc2ccc(Cl)cc2)C1 (centres unmarked) [Compound 246] | 100% | 0% | 98% | 95% | – | – | – | –
15 | OC(Cn1cncn1)(C1=NOC(COc2ccc(Cl)cc2)C1)C1(Cl)CC1 (single isomer, unassigned) [Compound 251] | 100% | 3% | 100% | 100% | – | – | – | –
16 | CC(C)(C)C(O)(Cn1cncn1)C1=NOC(COc2ccc(Cl)c(Cl)c2)C1 (single isomer, unassigned) [Compound 258] | 100% | 0% | 100% | 100% | – | – | – | –
17 | CC(C)(C)C(O)(Cn1cncn1)C1=NOC(CCOc2ccc(Cl)cc2)C1 (single isomer, unassigned) [Compound 209] | – | – | – | – | 100% | 11% | 99% | 100%
18 | OC(Cn1cncn1)(C1=NOC(Cc2ccc(-c3ccccc3)cc2)C1)c1ccc(Cl)cc1 (single isomer, unassigned) [Compound 204] | – | – | – | – | 100% | 0% | 77% | 99%

Row | SMILES | Test F disease control rating [1] | Test E disease control rating [2] | Test D disease control rating [3] | Test G disease control rating [4] | Test F rating (% disease control) [1] | Test E rating (% disease control) [2] | Test D rating (% disease control) [3] | Test G rating (% disease control) [4]
19 | COc1ccc(OCC2CC(C(O)(Cn3cncn3)C(C)(C)C)=NO2)cc1 (single isomer, unassigned) [Compound 260] | 98% | 1% | 99% | 100% | – | – | – | –
20 | OC(COc1ccc(Cl)cc1)(Cn1cncn1)C1=NOC(COc2ccc(Cl)cc2)C1 (centres unmarked) [Compound 271] | 100% | 2% | 42% | 92% | – | – | – | –
21 | CC(C)(C)C(O)(Cn1cncn1)C1=NOC(COc2ccc(Cl)cc2Cl)C1 (single isomer, unassigned) [Compound 256] | 100% | 0% | 97% | 99% | – | – | – | –
22 | CC1(C(O)(Cn2cncn2)C2=NOC(COc3ccc(Cl)cc3)C2)CC1 (single isomer, unassigned) [Compound 225] | 100% | 0% | – | 99% | – | – | – | –
23 | CC(C)(C)C(O)(Cn1cncn1)C1=NOC(COc2ccc(-c3ccccc3)cc2)C1 (single isomer, unassigned) [Compound 229] | 0% | 6% | 0% | 98% | – | – | – | –
24 | OC(COc1ccc(Cl)cc1)(Cn1cncn1)C1=NOC(c2ccc(Cl)cc2)C1 (centres unmarked) [Compound 272] | 100% | 0% | 69% | 99% | – | – | – | –
25 | CC1(C(O)(Cn2cncn2)C2=NOC(COc3ccc(C(F)(F)F)cc3)C2)CC1 (single isomer, unassigned) [Compound 237] | 100% | 0% | 89% | 98% | – | – | – | –
26 | OC(Cn1cncn1)(Cn1cncn1)C1=NOC(COc2ccc(Cl)cc2)C1 (centres unmarked) [Compound 248] | 100% | 0% | 0% | 98% | – | – | – | –
27 | CC(C)(C)C(O)(Cn1cncn1)C1=NOC(COc2ccc(Cl)cc2)C1 (single isomer, unassigned) [Compound 243] | 99% | 0% | 0% | 0% | – | – | – | –
28 | CC(C)(C)C(O)(Cn1cncn1)C1=NOC(CCOc2ccc(F)cc2)C1 (single isomer, unassigned) [Compound 270] | 100% | 75% | 99% | 100% | – | – | – | –
29 | CC(C)(C)CC(O)(Cn1cncn1)C1=NOC(COc2ccc(C(F)(F)F)cc2)C1 (single isomer, unassigned) [Compound 240] | 100% | 0% | – | 99% | – | – | – | –
30 | CC(C)(C)C(O)(Cn1cncn1)C1=NOC(CCOc2ccc(F)cc2)C1 (single isomer, unassigned) [Compound 269] | 100% | 73% | 99% | 100% | – | – | – | –
31 | CC(C)(C)C(O)(Cn1cncn1)C1=NOC(COc2ccc(-c3ccccc3)cc2)C1 (single isomer, unassigned) [Compound 228] | 86% | 12% | 0% | 99% | – | – | – | –
32 | OC(Cn1cncn1)(C1=NOC(Cc2ccc(-c3ccccc3)cc2)C1)c1ccc(Cl)cc1 (single isomer, unassigned) [Compound 205] | – | – | – | – | 68% | 6% | 10% | 98%
33 | OC(Cn1cncn1)(C1=NOC(COc2ccc(Cl)cc2)C1)C1CCCCC1 (single isomer, unassigned) [Compound 265] | 100% | 1% | 99% | 100% | – | – | – | –
34 | CC1(C(O)(Cn2cncn2)C2=NOC(COc3ccc(Cl)cc3)C2)CC1 (single isomer, unassigned) [Compound 224] | 100% | 30% | – | 100% | – | – | – | –
35 | Cc1ccc(OCC2CC(C(O)(Cn3cncn3)C(C)(C)C)=NO2)cc1 (single isomer, unassigned) [Compound 235] | 87% | 8% | – | 99% | – | – | – | –
